Results from patent US6503935B1, “Imidazoles and related compounds as α1A agonists” (Abbott Laboratories, priority 1998, dated 2003).
Where a name gives a salt, the structure may show the parent alone. Read-outs that look alike come from different tables or passages of the source.

Key:
[1] = molecular target: T1, α1A (rat submaxillary gland) (Rattus norvegicus, UniProt P43140); assay: Radioligand binding with [3H]-prazosin, α1A; settings: rat submaxillary gland, [3H]-prazosin
T1 construct: α1A (rat submaxillary gland); from tissue; host or cells: rat submaxillary gland
T1 sequence (P43140 1-466): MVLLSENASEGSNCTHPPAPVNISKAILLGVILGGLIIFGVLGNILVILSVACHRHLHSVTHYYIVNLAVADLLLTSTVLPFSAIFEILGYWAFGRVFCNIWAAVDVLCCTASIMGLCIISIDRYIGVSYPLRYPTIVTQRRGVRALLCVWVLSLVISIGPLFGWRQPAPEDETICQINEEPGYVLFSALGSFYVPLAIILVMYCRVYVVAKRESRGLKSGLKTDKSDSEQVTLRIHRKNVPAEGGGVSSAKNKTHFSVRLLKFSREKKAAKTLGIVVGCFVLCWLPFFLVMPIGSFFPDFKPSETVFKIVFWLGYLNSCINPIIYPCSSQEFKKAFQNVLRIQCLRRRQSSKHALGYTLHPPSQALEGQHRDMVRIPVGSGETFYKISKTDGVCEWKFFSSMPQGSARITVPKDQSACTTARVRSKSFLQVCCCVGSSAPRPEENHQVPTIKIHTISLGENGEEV
Method: (§1) For purposes of discussing α1 adrenoceptor subtypes, the IUPHAR convention of using lower case letters to define molecular clones and upper case letters to indicate pharmacologically defined adrenoceptors has been followed. Compounds of formula I were evaluated in radioligand binding assays specific for α1A (rat submaxillary gland), α1b (hamster receptor expressed in mouse fibroblasts) and α1d (rat receptor expressed in mouse fibroblasts) using [^3H]-prazosin as the radioligand as described in Knepper, et al. J. Pharm.

[2] = molecular target: T2, α1A (rabbit urethra) (Oryctolagus cuniculus, UniProt O02824); assay: Agonist contraction of smooth muscle tissue, rabbit urethra; type: cell-based; settings: rabbit urethra; for EC50: read-out: Agonist Tissue Response (pD2) α1A (rab ureth) (converted)
T2 construct: tested for α1A functional activity using rabbit urethra; from tissue; host or cells: rabbit urethra
T2 sequence (O02824 1-466): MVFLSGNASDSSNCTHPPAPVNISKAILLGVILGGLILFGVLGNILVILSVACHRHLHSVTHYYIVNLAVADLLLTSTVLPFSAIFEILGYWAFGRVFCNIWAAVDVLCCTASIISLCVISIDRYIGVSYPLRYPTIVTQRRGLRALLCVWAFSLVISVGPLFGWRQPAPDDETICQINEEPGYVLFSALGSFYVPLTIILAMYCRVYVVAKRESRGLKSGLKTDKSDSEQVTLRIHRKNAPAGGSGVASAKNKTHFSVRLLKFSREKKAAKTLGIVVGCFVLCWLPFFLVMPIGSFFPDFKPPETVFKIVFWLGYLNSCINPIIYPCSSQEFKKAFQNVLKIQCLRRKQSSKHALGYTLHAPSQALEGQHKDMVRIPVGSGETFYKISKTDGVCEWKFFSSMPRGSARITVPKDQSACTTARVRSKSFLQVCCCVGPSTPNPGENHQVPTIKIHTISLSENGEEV
Method: Most of the compounds were tested for α1A functional activity using rabbit urethra as follows. Female New Zealand white rabbits (2.0-3.5 Kg) were sedated with CO2 and decapitated. […] Subsequent experimental conditions were as described above for the other tissues. Agonist concentration response curves were cumulative except for the vas deferens assay in which the transient response made such measurements impractical.

[3] = molecular target: T3, α1d (rat receptor expressed in mouse fibroblasts) (Rattus norvegicus, UniProt P23944); assay: Radioligand binding with [3H]-prazosin, α1d; settings: rat receptor expressed in mouse fibroblasts, [3H]-prazosin
T3 construct: expressed in transfected cells; host or cells: mouse fibroblasts
T3 sequence (P23944 1-561): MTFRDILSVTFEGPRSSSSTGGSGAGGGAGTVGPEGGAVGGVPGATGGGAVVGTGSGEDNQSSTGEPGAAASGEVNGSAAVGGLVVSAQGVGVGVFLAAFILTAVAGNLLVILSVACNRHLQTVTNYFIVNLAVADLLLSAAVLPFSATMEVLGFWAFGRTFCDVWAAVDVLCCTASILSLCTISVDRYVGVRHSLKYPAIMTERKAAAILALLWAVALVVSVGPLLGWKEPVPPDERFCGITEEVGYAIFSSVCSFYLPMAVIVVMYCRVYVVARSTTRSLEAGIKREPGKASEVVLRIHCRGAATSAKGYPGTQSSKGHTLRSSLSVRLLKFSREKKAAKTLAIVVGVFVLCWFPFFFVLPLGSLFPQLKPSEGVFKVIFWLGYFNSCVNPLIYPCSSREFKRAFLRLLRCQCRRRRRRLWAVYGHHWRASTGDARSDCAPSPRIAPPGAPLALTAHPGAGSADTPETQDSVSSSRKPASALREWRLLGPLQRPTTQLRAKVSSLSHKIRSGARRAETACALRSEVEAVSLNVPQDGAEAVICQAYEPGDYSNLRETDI
Method: as §1

[4] = molecular target: T4, α1B (rat spleen) (Rattus norvegicus, UniProt P15823); assay: Agonist contraction of smooth muscle tissue, rat spleen; type: cell-based; settings: rat spleen; for EC50: read-out: Agonist Tissue Response (pD2) α1B (rat spleen) (converted)
T4 construct: α1B (rat spleen) and α1D (rat aorta) receptors; from tissue; host or cells: rat spleen
T4 sequence (P15823 1-515): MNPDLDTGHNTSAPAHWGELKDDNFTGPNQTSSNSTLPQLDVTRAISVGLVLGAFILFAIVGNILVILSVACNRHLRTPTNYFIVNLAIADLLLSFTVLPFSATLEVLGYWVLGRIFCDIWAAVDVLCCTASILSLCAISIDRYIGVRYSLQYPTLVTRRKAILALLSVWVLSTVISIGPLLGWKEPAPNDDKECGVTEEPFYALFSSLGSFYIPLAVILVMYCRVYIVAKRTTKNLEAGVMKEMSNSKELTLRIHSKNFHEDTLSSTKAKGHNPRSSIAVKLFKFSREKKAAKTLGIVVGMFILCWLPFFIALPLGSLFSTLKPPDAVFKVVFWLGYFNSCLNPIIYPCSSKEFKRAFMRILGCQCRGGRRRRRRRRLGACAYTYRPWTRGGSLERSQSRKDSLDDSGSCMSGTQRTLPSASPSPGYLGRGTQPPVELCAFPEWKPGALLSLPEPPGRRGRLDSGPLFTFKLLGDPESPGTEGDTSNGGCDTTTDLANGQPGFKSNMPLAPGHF

[5] = molecular target: T5, α1D (rat aorta) (Rattus norvegicus, UniProt P23944); assay: Agonist contraction of smooth muscle tissue, rat aorta; type: cell-based; settings: rat aorta, endothelium removed; for EC50: read-out: Agonist Tissue Response (pD2) α1D (rat aorta) (converted)
T5 construct: α1B (rat spleen) and α1D (rat aorta) receptors; from tissue; host or cells: rat aorta strips, endothelium removed
T5 sequence (P23944 1-561): T3 sequence (P23944 1-561)

[6] = read-out: Radioligand Binding Ki α1d (Rat)

CC(=O)Nc1nc(C)c(S(=O)(=O)Nc2cccc3c2CCCC3c2cnc[nH]2)s1 (stereo not drawn) [Example 76, N-[5-({[5-(1H-imidazol-5-yl)-5,6,7,8-tetrahydro-1-naphthalenyl]amino}sulfonyl)-4-methyl-1,3-thiazol-2-yl]acetamide]
Ki [1]: 3.21 µM

Cc1noc(C)c1S(=O)(=O)Nc1cccc2c1CCCC2c1cnc[nH]1 (stereo not drawn) [Example 61, N-[5-(1H-imidazol-5-yl)-5,6,7,8-tetrahydro-1-naphthalenyl]-3,5-dimethyl-4-isoxazolesulfonamide]
Ki [1]: 1.56 µM

Cc1ccccc1S(=O)(=O)Nc1cccc2c1CCCC2c1cnc[nH]1 (stereo not drawn) [Example 69, N-[5-(1H-imidazol-5-yl)-5,6,7,8-tetrahydro-1-naphthalenyl]-2-methylbenzenesulfonamide]
Ki [1]: 4.47 µM

O=S(=O)(CC(F)(F)F)Nc1cccc(Cc2c[nH]cn2)c1 [Example 78, 2,2,2-trifluoro-N-[3-(1H-imidazol-4-ylmethyl)phenyl]ethanesulfonamide, maleate]
EC50 [2]: 8.91 µM

CCCCS(=O)(=O)Nc1cccc2c1CCCC2c1cnc[nH]1 (stereo not drawn) [Example 64, N-[5-(1H-imidazol-5-yl)-5,6,7,8-tetrahydro-1-naphthalenyl]-1-butanesulfonamide]
Ki [1]: 4.15 µM

Cc1nn(C)c(Cl)c1S(=O)(=O)Nc1cccc2c1CCCC2c1cnc[nH]1 (stereo not drawn) [Example 74, 5-Chloro-N-[5-(1H-imidazol-5-yl)-5,6,7,8-tetrahydro-1-naphthalenyl]-1,3-dimethyl-1H-pyrazole-4-sulfonamide]
Ki [1]: 5.06 µM

CCCS(=O)(=O)Nc1cccc2c1CCCC2c1c[nH]cn1 (stereo not drawn) [Example 63, N-[5-(1H-imidazol-5-yl)-5,6,7,8-tetrahydro-1-naphthalenyl]-1-propanesulfonamide]
Ki [1]: 1.72 µM

CCS(=O)(=O)Nc1ccc(OC)c2c1CCCC2c1c[nH]cn1.O=C(O)C=CC(=O)O (stereo not drawn) [Example 25, maleate]
Ki [1]: 2.46 µM

O=S(=O)(Nc1cccc2c1CCCC2c1cnc[nH]1)c1ccc(Cl)s1 (stereo not drawn) [Example 72, 5-Chloro-N-[5-(1H-imidazol-5-yl)-5,6,7,8-tetrahydro-1-naphthalenyl]-2-thiophenesulfonamide]
Ki [1]: 1.51 µM
Ki [3, 6]: 2.28 µM

CS(=O)(=O)Nc1cccc2c1CCCCC2c1c[nH]cn1 (stereo not drawn) [Example 38, N-[5-(1H-imidazol-4-yl)-6,7,8,9-tetrahydro-5H-benzo[a]cyclohepten-1-yl]methanesulfonamide, maleate]
Ki [1]: 1.36 µM
EC50 [2]: 19.1 µM
Ki [3, 6]: 2.54 µM

CCS(=O)(=O)Nc1ccc(OC)c2c1CCCC2c1c[nH]cn1.O=C(O)C=CC(=O)O (stereo not drawn) [Example 25]
Agonist Tissue Response (pD2) α1A (rab ureth) [2]: 4.48
Agonist Tissue Response (pD2) α1B (rat spleen) [4]: 3.12
Agonist Tissue Response (pD2) α1D (rat aorta) [5]: <3.00

O=C(O)C=CC(=O)O.O=S(=O)(Nc1cccc2c1CCCC2c1c[nH]cn1)C1CC1 (stereo not drawn) [Example 27, N-[5,6,7,8-tetrahydro-(1H-imidazol-4-yl)-1-naphthalenyl]cyclopropanesulfonamide, maleate]
Ki [1]: 0.531 µM
Agonist Tissue Response (pD2) α1A (rab ureth) [2]: 5.25
Ki [3, 6]: 2.67 µM

CCS(=O)(=O)Nc1cccc2c1CCCCC2c1c[nH]cn1 (stereo not drawn) [Example 40, N-[5-(1H-imidazol-4-yl)-6,7,8,9-tetrahydro-5H-benzo[a]cyclohepten-1-yl]ethanesulfonamide, maleate]
Ki [1]: 1.34 µM

CCC(O)(c1cccc(NS(=O)(=O)CC)c1)c1c[nH]cn1 (stereo not drawn) [Example 55, N-[3-(1-hydroxy-1-(1H-imidazol-4-yl)propyl)phenyl]ethanesulfonamide]
Ki [1]: 3.65 µM
Ki [3, 6]: 2.34 µM

N-[5,6,7,8-tetrahydro-5-(1H-imidazol-4-yl)-1-naphthalenyl]-2-methylethanesulfonamide, maleate [Example 18]
Ki [1]: 1.14 µM
Agonist Tissue Response (pD2) α1A (rab ureth) [2]: 5.17
Agonist Tissue Response (pD2) α1B (rat spleen) [4]: 4.85
Agonist Tissue Response (pD2) α1D (rat aorta) [5]: 4.96
Ki [3, 6]: 2.05 µM

CS(=O)(=O)Nc1ccc(Cl)c2c1CCCC2c1c[nH]cn1 (stereo not drawn) [Example 43, N-[4-chloro-5-(1H-imidazol-4-yl)-5,6,7,8-tetrahydro-1-naphthalenyl]methanesulfonamide, maleate]
Ki [1]: 0.445 µM
EC50 [2]: 44.7 µM
EC50 [4]: > 1000 µM
EC50 [5]: > 1000 µM
Ki [3, 6]: 2.86 µM

Cc1ccc(S(=O)(=O)Nc2cccc3c2CCCC3c2cnc[nH]2)cc1 (stereo not drawn) [Example 68, N-[5-(1H-imidazol-5-yl)-5,6,7,8-tetrahydro-1-naphthalenyl]-4-methylbenzenesulfonamide]
Ki [1]: 5.28 µM

O=S(=O)(CC(F)(F)F)Nc1cccc2c1CCCC2c1c[nH]cn1 (single isomer, unassigned; (-)) [Example 35, (−)-N-[5,6,7,8-tetrahydro-5-(1H-imidazol-4-yl)-1-naphthalenyl]-2,2,2-trifluoroethanesulfonamide]
Ki [1]: 2.18 µM
EC50 [2]: 81.3 µM
EC50 [4]: > 1000 µM
EC50 [5]: > 1000 µM

Methyl 2-({[5-(1H-imidazol-5-yl)-5,6,7,8-tetrahydro-1-naphthalenyl]amino}sulfonyl)-3-thiophenecarboxylate [Example 75]
Ki [1]: 4.6 µM

CS(=O)(=O)Nc1ccc(O)c2c1CCCC2c1c[nH]cn1 (stereo not drawn) [Example 24, N-[5,6,7,8-tetrahydro-4-hydroxy-5-(1H-imidazol-4-yl)-1-naphthalenyl]methanesulfonamide, maleate]
Ki [1]: 0.712 µM
EC50 [2]: 24.5 µM
EC50 [4]: > 1000 µM
EC50 [5]: > 1000 µM

CCS(=O)(=O)Nc1ccc(Cl)c2c1CCCC2c1c[nH]cn1 (stereo not drawn) [Example 42, N-[4-chloro-5-(1H-imidazol-4-yl)-5,6,7,8-tetrahydro-1-naphthalenyl]ethanesulfonamide, maleate]
Ki [1]: 0.359 µM
EC50 [2]: > 1000 µM
Ki ([3]; Radioligand Binding Ki α1d (Rat)): 2.28 µM
